Here are results for 17 compounds from patent US9562035B2, “Benzamide derivative useful as FASN inhibitors for the treatment of cancer” (Janssen Pharmaceutica NV, priority 2013, dated 2017).

Each structure is given as a SMILES string. A value given as a limit tells only on which side of the number the result lay.

The subject of assay [1] is A2780 ovarian cells. Put plainly: A2780 Ovarian Cell Proliferation Assay in Lipid Reduced Medium, with Palmitate (control). The settings on record: Homo sapiens, A2780; lipid reduced medium, 25 μM palmitate, 96 h, MTT; read-out: Proliferation A2780 with Palmitate pIC50 (converted). Type of assay: cell-based. Put shortly: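 A2780 cells were seeded in RPMI1640 with 10% FCS, then switched next day to medium with 10% lipid-reduced serum. Compound was added with final 25 μM palmitate, 0.2% fatty-acid-free BSA and 0.2% DMSO, and incubated 96 h at 37 °C. Read-out was MTT absorbance at 544 nm; pIC50 = −log(IC50) from curve fit.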

Assay [2] concerns the target T1, hFASN enzyme (full length) (Homo sapiens, UniProt P49327).
T1 construct: 10 μL hFASN enzyme (full length, 300 ng, purified in house); made in house
The experiment in a line: Fatty Acid Synthase (FASN) Inhibition Scintillation Proximity Assay. Type of assay: biochemical. The settings on record: for IC50: mean where tested more than once, ~ = standard error of pIC50 larger than 0.5; for inhibition at 10 µM: read-out: FASN % Effect @1E−05M. In short, it runs like this:
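Purified full-length human FASN (300 ng) incubated 60 min at room temperature with NADPH, [3H]-acetyl-CoA and malonyl-CoA in 100 mM KH2PO4 pH 7.5, 1 mM DTT; compound at 30 μM to 0.01 μM. [3H]-palmitate captured by SPA imaging beads; IC50 from 4-parameter fit, reported as pIC50.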

For assay [3], the system named is A2780 ovarian cells. Put plainly: A2780 Ovarian Cell Proliferation Assay in Lipid Reduced Medium, without Palmitate. Conditions: Homo sapiens, A2780; lipid reduced medium, without palmitate, 96 h, MTT; read-out: Proliferation A2780 w/o Palmitate pIC50 (converted). Type of assay: cell-based. In short, it runs like this: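 A2780 cells were seeded in 10% FCS medium and switched next day to 10% lipid-reduced serum without palmitate. Compounds at 0.01–30 μM were added with 0.2% DMSO, 0.2% fatty-acid-free BSA and 0.25% ethanol final. After 96 h, MTT absorbance at 544 nm was normalized to plate controls, and IC50/pIC50 came from a 4-parameter logistic fit.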

For assay [4], the target named is T2, FASN Keto-reductase Domain (Homo sapiens, UniProt P49327).
T2 construct: 10 μL hFASN enzyme (full length, 300 ng, purified in house) and 360 μM NADPH; made in house
The experiment in a line: Fatty Acid Synthase Keto-Reductase Domain (FASN KR) Inhibition. Format: biochemical. Conditions: mean where tested more than once; read-out: FASN K-R Domain pIC50 (converted). Put shortly:
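Full-length human FASN (300 ng) in 100 mM KH2PO4 pH 7.5 with 360 μM NADPH and 180 mM ethyl acetoacetate (stock); A340 decrease read over 20 min at room temperature.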

T1 sequence (P49327 whole entry): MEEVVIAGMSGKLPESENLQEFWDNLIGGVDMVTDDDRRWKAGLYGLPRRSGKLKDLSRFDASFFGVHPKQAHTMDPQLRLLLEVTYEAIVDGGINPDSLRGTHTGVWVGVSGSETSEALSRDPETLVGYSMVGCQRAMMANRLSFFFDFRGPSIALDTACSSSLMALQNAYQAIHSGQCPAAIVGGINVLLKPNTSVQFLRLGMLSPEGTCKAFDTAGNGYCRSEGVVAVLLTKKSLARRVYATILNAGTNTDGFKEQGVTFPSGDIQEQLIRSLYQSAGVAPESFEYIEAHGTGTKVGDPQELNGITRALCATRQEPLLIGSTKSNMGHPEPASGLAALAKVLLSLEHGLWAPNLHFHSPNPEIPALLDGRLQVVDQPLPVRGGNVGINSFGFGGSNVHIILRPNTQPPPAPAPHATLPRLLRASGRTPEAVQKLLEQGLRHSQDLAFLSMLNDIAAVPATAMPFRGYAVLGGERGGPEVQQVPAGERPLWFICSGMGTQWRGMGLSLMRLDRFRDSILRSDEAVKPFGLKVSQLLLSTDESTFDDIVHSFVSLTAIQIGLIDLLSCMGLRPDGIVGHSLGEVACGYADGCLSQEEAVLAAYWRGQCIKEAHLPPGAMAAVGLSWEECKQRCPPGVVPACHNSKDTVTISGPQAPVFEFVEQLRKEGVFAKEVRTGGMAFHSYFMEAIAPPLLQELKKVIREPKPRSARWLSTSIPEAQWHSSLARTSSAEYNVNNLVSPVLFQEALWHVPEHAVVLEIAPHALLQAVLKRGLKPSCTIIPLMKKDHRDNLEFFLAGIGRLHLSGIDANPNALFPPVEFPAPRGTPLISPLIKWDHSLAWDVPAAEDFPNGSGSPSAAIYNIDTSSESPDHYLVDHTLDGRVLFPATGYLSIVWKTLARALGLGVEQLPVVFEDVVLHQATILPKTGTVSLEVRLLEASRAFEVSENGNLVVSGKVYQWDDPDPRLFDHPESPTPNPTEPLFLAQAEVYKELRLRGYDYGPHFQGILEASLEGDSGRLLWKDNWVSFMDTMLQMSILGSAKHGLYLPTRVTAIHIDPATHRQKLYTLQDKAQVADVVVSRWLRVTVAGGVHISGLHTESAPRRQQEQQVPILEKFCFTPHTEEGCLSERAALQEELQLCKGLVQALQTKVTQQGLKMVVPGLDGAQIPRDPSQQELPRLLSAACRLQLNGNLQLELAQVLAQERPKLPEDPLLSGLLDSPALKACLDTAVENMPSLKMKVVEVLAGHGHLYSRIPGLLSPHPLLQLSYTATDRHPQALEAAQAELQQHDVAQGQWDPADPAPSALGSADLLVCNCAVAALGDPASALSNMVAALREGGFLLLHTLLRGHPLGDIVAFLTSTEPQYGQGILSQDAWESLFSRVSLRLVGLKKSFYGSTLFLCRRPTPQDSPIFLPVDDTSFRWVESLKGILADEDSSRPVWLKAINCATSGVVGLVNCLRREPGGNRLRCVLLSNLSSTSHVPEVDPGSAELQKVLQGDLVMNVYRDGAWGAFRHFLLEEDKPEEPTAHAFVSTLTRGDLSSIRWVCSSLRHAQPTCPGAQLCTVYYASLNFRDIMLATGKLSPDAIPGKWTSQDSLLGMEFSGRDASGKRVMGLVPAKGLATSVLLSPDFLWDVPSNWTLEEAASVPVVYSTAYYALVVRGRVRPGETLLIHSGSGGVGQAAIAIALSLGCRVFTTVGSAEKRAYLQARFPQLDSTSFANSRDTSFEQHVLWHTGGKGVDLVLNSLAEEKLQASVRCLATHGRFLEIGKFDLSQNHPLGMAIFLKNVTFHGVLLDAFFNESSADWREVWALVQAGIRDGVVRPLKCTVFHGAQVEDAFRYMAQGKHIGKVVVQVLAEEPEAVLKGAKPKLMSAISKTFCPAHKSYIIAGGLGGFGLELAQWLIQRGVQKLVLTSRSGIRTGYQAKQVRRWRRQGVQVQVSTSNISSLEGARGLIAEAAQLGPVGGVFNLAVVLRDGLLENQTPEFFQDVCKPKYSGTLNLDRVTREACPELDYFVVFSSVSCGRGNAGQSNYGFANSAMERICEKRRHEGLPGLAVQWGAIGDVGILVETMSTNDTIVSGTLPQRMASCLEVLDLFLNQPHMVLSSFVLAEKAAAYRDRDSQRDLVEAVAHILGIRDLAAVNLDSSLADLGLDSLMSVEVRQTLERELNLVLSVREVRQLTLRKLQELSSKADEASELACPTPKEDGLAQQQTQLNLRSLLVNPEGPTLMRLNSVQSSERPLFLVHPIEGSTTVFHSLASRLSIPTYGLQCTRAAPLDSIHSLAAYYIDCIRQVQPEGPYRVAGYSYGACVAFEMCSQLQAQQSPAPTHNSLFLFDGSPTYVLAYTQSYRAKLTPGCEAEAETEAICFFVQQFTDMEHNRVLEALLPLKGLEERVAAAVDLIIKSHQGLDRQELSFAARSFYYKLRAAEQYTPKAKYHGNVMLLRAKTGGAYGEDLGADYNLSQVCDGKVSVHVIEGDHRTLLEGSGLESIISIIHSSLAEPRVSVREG
T2 sequence (P49327 whole entry, the tested form may be a part): as the sequence (P49327 whole entry) above

As for `Cc1ccc(C(=O)N2CCC(c3ccc(-c4cnn(C)c4)cc3)CC2)cc1NC(=O)c1ccc(F)cc1` [Compound 116, 4-fluoro-N-(2-methyl-5-(4-(4-(1-methyl-1H-pyrazol-4-yl)phenyl)piperidine-1-carbonyl)phenyl)benzamide], the IC50 was over 10000 nM in assay [1], 43.7 nM in assay [2], 126 nM in assay [3] and 93.3 nM in assay [4]. The inhibition at 10 µM in assay [2] turned out to be 101%.
Turning to `Cc1ccc(C(=O)N2CC(c3ccc(-c4cnn(C)c4)cc3)C2)cc1NC(=O)C1CC1` [Compound 142, N-(2-methyl-5-(3-(4-(1-methyl-1H-pyrazol-4-yl)phenyl)azetidine-1-carbonyl)phenyl)cyclopropanecarboxamide], the IC50 in assay [1] was over 10000 nM; in assay [2] it was 46.8 nM; in assay [3], 107 nM; in assay [4], 110 nM. Moreover, the inhibition at 10 µM in assay [2] was 106%.
Consider `Cc1ccc(C(=O)N2CCC(c3ccc(-c4cnn(C)c4)cc3)CC2)cc1NC(=O)C1CN(CCC(C)C)C1` [Compound 213, 1-isopentyl-N-(2-methyl-5-(4-(4-(1-methyl-1H-pyrazol-4-yl)phenyl)piperidine-1-carbonyl)phenyl)azetidine-3-carboxamide], for which the IC50 in assay [1] is over 10000 nM; in assay [2], 45.7 nM; in assay [3], 64.6 nM; in assay [4], 195 nM. In assay [2], the inhibition at 10 µM was 111%.
As to `Cc1ccc(C(=O)N2CC(c3ccc(-c4cccnc4N)cc3)C2)cc1NC(=O)c1ccc(Cl)nc1` [Compound 259, N-(5-(3-(4-(2-aminopyridin-3-yl)phenyl)azetidine-1-carbonyl)-2-methylphenyl)-6-chloronicotinamide], the IC50 in assay [1] is over 10000 nM; in assay [2], 56.2 nM; in assay [3] it was about 85.1 nM; in assay [4], 355 nM. Moreover, the inhibition at 10 µM in assay [2] stood at 103%.
For `Cc1ccc(C(=O)N2CCC(c3ccc(-c4cnn(C)c4)cc3)CC2)cc1NC(=O)C1CCN(C2CCC(C)C2)C1` (stereo not shown) [Compound 194, N-(2-methyl-5-(4-(4-(1-methyl-1H-pyrazol-4-yl)phenyl)piperidine-1-carbonyl)phenyl)-1-(3-methylcyclopentyl)pyrrolidine-3-carboxamide], the IC50 is about 8710 nM in assay [1], 117 nM in assay [2], 158 nM in assay [3] and 214 nM in assay [4]. For the same compound, in assay [2], the inhibition at 10 µM is 102%.
In the same order, the values of `Cc1ccc(C(=O)N2CC(c3ccc(-c4ccsc4)cc3)C2)cc1NC(=O)c1ccc(NC(C)C)nc1` [Compound 26, 6-(isopropylamino)-N-(2-methyl-5-(3-(4-(thiophen-3-yl)phenyl)azetidine-1-carbonyl)phenyl)nicotinamide] are over 10000 nM, 32.4 nM, about 2290 nM, 40.7 nM and 105%.
`Cc1ccc(C(=O)N2CC(c3ccc(-c4cccc5ncccc45)cc3)C2)cc1NC(=O)c1ccc(NC(C)C)nc1` [Compound 12, 6-(isopropylamino)-N-(2-methyl-5-(3-(4-(quinolin-5-yl)phenyl)azetidine-1-carbonyl)phenyl)nicotinamide]: the IC50 in assay [1] is 2240 nM; in assay [2], 38.9 nM; in assay [3] it was 49 nM; in assay [4], 22.9 nM. For the same compound, in assay [2], the inhibition at 10 µM stood at 111%.
In the same order, the values of `Cc1ccc(C(=O)N2CCC(c3ccc4[nH]c(=O)sc4c3)CC2)cc1NC(=O)c1ccc(NC(C)C)nc1` [Compound 49, 6-(isopropylamino)-N-(2-methyl-5-(4-(2-oxo-2,3-dihydrobenzo[d]thiazol-6-yl)piperidine-1-carbonyl)phenyl)nicotinamide] are over 10000 nM, 120 nM, 813 nM, 229 nM and 97%.
Turning to `CCCCC(C)N1CCC(C(=O)Nc2cc(C(=O)N3CCC(c4ccc(-c5cnn(C)c5)cc4)CC3)ccc2C)CC1` (stereo not shown) [Compound 175, 1-(hexan-2-yl)-N-(2-methyl-5-(4-(4-(1-methyl-1H-pyrazol-4-yl)phenyl)piperidine-1-carbonyl)phenyl)piperidine-4-carboxamide], the IC50 in assay [1] is about 10000 nM; in assay [2] it was 49 nM; in assay [3] it was 38.9 nM; in assay [4], 77.6 nM. The inhibition at 10 µM in assay [2] stood at 108%.
Regarding `Cc1ccc(C(=O)N2CC(c3ccc(-c4cnn(C)c4)cc3)C2)cc1NC(=O)c1ccc(N2CCN(C)CC2)nc1` [Compound 141, N-(2-methyl-5-(3-(4-(1-methyl-1H-pyrazol-4-yl)phenyl)azetidine-1-carbonyl)phenyl)-6-(4-methylpiperazin-1-yl)nicotinamide], the IC50 was 6610 nM in assay [1], 21.9 nM in assay [2], 36.3 nM in assay [3] and 72.4 nM in assay [4]. Besides, the inhibition at 10 µM in assay [2] is 110%.
As to `Cc1ccc(C(=O)N2CCC(c3ccc(-c4cnn(C)c4)cc3)CC2)cc1NC(=O)c1sccc1Cl` [Compound 99, 3-chloro-N-(2-methyl-5-(4-(4-(1-methyl-1H-pyrazol-4-yl)phenyl)piperidine-1-carbonyl)phenyl)thiophene-2-carboxamide], the IC50 in assay [1] is 6310 nM; in assay [2], 107 nM; in assay [3], 389 nM; in assay [4] it was 295 nM. In assay [2], the inhibition at 10 µM is 92%.
Consider `Cc1ccc(C(=O)N2CCC(c3ccc(-c4cnn(C)c4)cc3)CC2)cc1NC(=O)c1ccc(C#N)cc1` [Compound 138, 4-cyano-N-(2-methyl-5-(4-(4-(1-methyl-1H-pyrazol-4-yl)phenyl)piperidine-1-carbonyl)phenyl)benzamide], for which the IC50 is over 10000 nM in assay [1], 91.2 nM in assay [2], 331 nM in assay [3] and 195 nM in assay [4]. Further, the inhibition at 10 µM in assay [2] was determined as 107%.
Taken in the same sequence, the figures for `Cc1ccc(C(=O)N2CC(c3ccc(-c4cnn(C)c4)cc3)C2)cc1NC(=O)c1ccc2ccccc2n1` [Compound 79, N-(2-methyl-5-(3-(4-(1-methyl-1H-pyrazol-4-yl)phenyl)azetidine-1-carbonyl)phenyl)quinoline-2-carboxamide] were about 9550 nM, 93.3 nM, 525 nM, 182 nM and 108%.
Taken in the same sequence, the figures for `Cc1ccc(C(=O)N2CCC(c3ccc(-c4cnn(C)c4)cc3)CC2)cc1NC(=O)c1ccc(C#N)cc1F` [Compound 129, 4-cyano-2-fluoro-N-(2-methyl-5-(4-(4-(1-methyl-1H-pyrazol-4-yl)phenyl)piperidine-1-carbonyl)phenyl)benzamide] were over 10000 nM, 22.9 nM, 21.4 nM, 34.7 nM and 104%.
Take `CCN1CC(C(=O)Nc2cc(C(=O)N3CCC(c4ccc(-c5cnn(C)c5)cc4)CC3)ccc2C)C1` [Compound 205, 1-ethyl-N-(2-methyl-5-(4-(4-(1-methyl-1H-pyrazol-4-yl)phenyl)piperidine-1-carbonyl)phenyl)azetidine-3-carboxamide]: the IC50 in assay [1] was over 10000 nM; in assay [2], 269 nM; in assay [3], 355 nM; in assay [4] it was 589 nM. Also, the inhibition at 10 µM in assay [2] stood at 95%.
On to `CC(C)Nc1ccc(C(=O)Nc2cc(C(=O)N3CC(c4ccc(-c5cccnc5)cc4)C3)ccc2Cl)cn1` [Compound #73, N-(2-chloro-5-(3-(4-(pyridin-3-yl)phenyl)azetidine-1-carbonyl)phenyl)-6-(isopropylamino)nicotinamide], for which the IC50 in assay [1] is 13500 nM; in assay [2] it was 32.4 nM; in assay [3] it was 148 nM; in assay [4] it was 85.1 nM. The inhibition at 10 µM in assay [2] came out at 93%.
As for `Cc1ccc(C(=O)N2CCC(c3ccc(-c4cnn(C)c4)cc3)CC2)cc1NC(=O)C1CCNC1` (stereo not shown) [Compound 170, N-(2-methyl-5-(4-(4-(1-methyl-1H-pyrazol-4-yl)phenyl)piperidine-1-carbonyl)phenyl)pyrrolidine-3-carboxamide], the IC50 was over 10000 nM in assay [1], 57.5 nM in assay [2], 302 nM in assay [3] and 339 nM in assay [4]. Further, the inhibition at 10 µM in assay [2] is 112%.
